Earlier results as cited in patent publication US20070105828A1, “Novel polymorph form M of mifepristone and process for its preparation” (Glenmark Pharmaceuticals Limited, priority 2005, published 2007).

Molecular target: glucocorticoid receptor (Homo sapiens, UniProt P04150)
Conditions: relative to dexamethasone; background statement

Chain of glucocorticoid receptor (P04150 whole entry, species assumed): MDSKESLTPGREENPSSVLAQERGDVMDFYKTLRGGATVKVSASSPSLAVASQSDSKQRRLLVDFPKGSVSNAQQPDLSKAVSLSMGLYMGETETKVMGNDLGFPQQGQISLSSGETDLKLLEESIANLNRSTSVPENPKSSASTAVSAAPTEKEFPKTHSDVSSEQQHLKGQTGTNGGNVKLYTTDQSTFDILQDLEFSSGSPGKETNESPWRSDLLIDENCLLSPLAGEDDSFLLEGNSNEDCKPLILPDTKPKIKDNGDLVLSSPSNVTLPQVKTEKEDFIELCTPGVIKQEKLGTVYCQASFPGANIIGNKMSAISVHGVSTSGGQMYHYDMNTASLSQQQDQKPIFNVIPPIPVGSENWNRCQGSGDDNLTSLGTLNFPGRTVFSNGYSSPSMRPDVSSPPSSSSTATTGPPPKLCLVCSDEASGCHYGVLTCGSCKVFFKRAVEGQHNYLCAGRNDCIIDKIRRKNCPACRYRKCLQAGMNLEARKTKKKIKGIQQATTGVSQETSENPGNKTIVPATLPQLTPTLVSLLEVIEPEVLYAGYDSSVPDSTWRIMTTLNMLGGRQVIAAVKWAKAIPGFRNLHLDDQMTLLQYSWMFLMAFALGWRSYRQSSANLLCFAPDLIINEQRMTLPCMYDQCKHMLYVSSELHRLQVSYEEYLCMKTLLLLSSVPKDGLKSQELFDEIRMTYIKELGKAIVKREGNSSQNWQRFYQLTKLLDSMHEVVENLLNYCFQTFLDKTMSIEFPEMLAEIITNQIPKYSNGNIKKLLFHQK

CC#C[C@]1(O)CC[C@H]2[C@@H]3CCC4=CC(=O)CCC4=C3[C@@H](c3ccc(N(C)C)cc3)C[C@@]21C [Mifepristone, (11β,17β)-11-[4-(N,N-dimethylamino)phenyl]-17-hydroxy-17-(1-propynyl)estra-4,9-diene-3-one]
affinity for the glucocorticoid receptor compared with dexamethasone: three times greater than that of dexamethasone
